Measurements reported in publication PMC9804871, “Effect of Opicapone on Levodopa Pharmacokinetics in Patients with Fluctuating Parkinson's Disease” (Movement Disorders, 2022).
Marks after values point to notes of the source that are not given here.

Columns and labels:
[1] = 12-hour levodopa plasma pharmacokinetics; type: in vivo, human (patients with PD); conditions: for Levodopa AUCτ / Levodopa Cavg / Levodopa Cmax / Levodopa Cmin: mean; for Levodopa tmax: median; for Levodopa Cmax (over all intakes of the 12-hour pharmacokinetics; Cmax,max) / Levodopa Cmin (over all intakes, excluding first predose; Cmin,min): mean (%CV); for Levodopa Cmin,min, geometric mean (90% CI): N 11; for Levodopa Cmax,max, geometric mean (90% CI): N 12
Protocol: The study design is illustrated in Figure 1.
Pharmacokinetic evaluation occurred over 12 hours with sampling every 30 minutes, except for the last sample following each LD dose in the opicapone plus four LD intake regimen, which was sampled at 1 hour. The main pharmacokinetics parameters assessed included maximum observed plasma concentration (Cmax), time to achieve peak plasma levels (tmax), minimum observed plasma concentration (Cmin), plasma elimination half‐life (t1/2), area under the curve (AUC), and fluctuation index (FI; as an expression of peak‐to‐trough fluctuation, Cmax, and Cmin, relative to average concentration [Cavg]). The pharmacokinetics of the LD metabolite 3‐O‐methyldopa (3‐OMD) was also evaluated.
Descriptive statistics were used to summarize the pharmacokinetics parameters for LD and 3‐OMD for each of the three regimens. […] No formal comparison was performed between opicapone regimens.

[2] = test system: patients with PD and end-of-dose motor fluctuations; assay: 12-hour patient on/off monitoring on pharmacokinetics days; type: in vivo, human (patients with PD); conditions: for OFF-time / ON-time / ON-time With Dyskinesia / ON-time Without Dyskinesia / Time to Best-ON / Time to ON: mean; for 12-hour OFF-time / 12-hour ON-time / 12-hour ON-time With Dyskinesia / 12-hour ON-time Without Dyskinesia / 12-hour Time to Best-ON / 12-hour Time to ON: mean (SD)
Protocol: Clinical and safety/tolerability outcomes were also assessed as exploratory secondary outcomes. Clinical outcomes included on and off time assessed using patient‐rated tools. The timing of on and off states was registered (in real time) by the investigators during the matching 12‐hour pharmacokinetic evaluation (as such applied on pharmacokinetics days only), and patients also completed 24‐hour patient Hauser on/off diary charts[21] (in 30‐minute blocks) during the 3 days before each pharmacokinetic visit. Diary states of interest were off time and on time, including on without dyskinesia, on with nontroublesome dyskinesia, and on with troublesome dyskinesia. In addition, the Patient Global Impression of Change (PGI‐C) of opicapone 50 mg was evaluated at the end of the LD/CD 400/100 mg plus opicapone treatment compared with before the start of opicapone treatment.[22] Safety and tolerability endpoints included treatment‐emergent adverse events (TEAEs), serious TEAEs, and TEAEs leading to discontinuation.
Clinical outcomes are also presented descriptively. A paired t test was used for the comparison of 12‐hour off and on time, 24‐hour off and on time, time to on, and time to best on between each opicapone‐containing regimen and the regimen without opicapone. Estimates of mean difference and corresponding 90% CIs were reported for all main variables.

[3] = five-intake LD/CD 500/125 mg vs five-intake LD/CD 400/100 mg plus opicapone 50 mg, first LD/CD intake
[4] = five-intake LD/CD 500/125 mg vs five-intake LD/CD 400/100 mg plus opicapone 50 mg, fourth LD/CD intake
[5] = five-intake LD/CD 500/125 mg vs five-intake LD/CD 400/100 mg plus opicapone 50 mg
[6] = five-intake LD/CD 500/125 mg vs five-intake LD/CD 400/100 mg plus opicapone 50 mg, second LD/CD intake
[7] = five-intake LD/CD 500/125 mg vs five-intake LD/CD 400/100 mg plus opicapone 50 mg, third LD/CD intake
[8] = five-intake LD/CD 500/125 mg vs four-intake LD/CD 400/100 mg plus opicapone 50 mg, first LD/CD intake
[9] = five-intake LD/CD 500/125 mg vs four-intake LD/CD 400/100 mg plus opicapone 50 mg, fourth LD/CD intake
[10] = five-intake LD/CD 500/125 mg vs four-intake LD/CD 400/100 mg plus opicapone 50 mg
[11] = five-intake LD/CD 500/125 mg vs four-intake LD/CD 400/100 mg plus opicapone 50 mg, second LD/CD intake
[12] = five-intake LD/CD 500/125 mg vs four-intake LD/CD 400/100 mg plus opicapone 50 mg, third LD/CD intake
[13] = five-intake levodopa/carbidopa 500/125 mg vs five-intake levodopa/carbidopa 400/100 mg plus opicapone 50 mg
[14] = five-intake levodopa/carbidopa 500/125 mg vs four-intake levodopa/carbidopa 400/100 mg plus opicapone 50 mg
[15] = 5-intake LD/CD 500/125mg vs 4-intake LD/CD 400/100mg plus OPC 50mg, 1st LD/CD intake
[16] = 5-intake LD/CD 500/125mg vs 4-intake LD/CD 400/100mg plus OPC 50mg, 2nd LD/CD intake
[17] = 5-intake LD/CD 500/125mg vs 4-intake LD/CD 400/100mg plus OPC 50mg, 3rd LD/CD intake
[18] = 5-intake LD/CD 500/125mg vs 4-intake LD/CD 400/100mg plus OPC 50mg, 4th LD/CD intake
[19] = 5-intake LD/CD 500/125mg vs 4-intake LD/CD 400/100mg plus OPC 50mg
[20] = 5-intake LD/CD 500/125mg vs 5-intake LD/CD 400/100mg plus OPC 50mg, 1st LD/CD intake
[21] = 5-intake LD/CD 500/125mg vs 5-intake LD/CD 400/100mg plus OPC 50mg, 2nd LD/CD intake
[22] = 5-intake LD/CD 500/125mg vs 5-intake LD/CD 400/100mg plus OPC 50mg, 3rd LD/CD intake
[23] = 5-intake LD/CD 500/125mg vs 5-intake LD/CD 400/100mg plus OPC 50mg, 4th LD/CD intake
[24] = 5-intake LD/CD 500/125mg vs 5-intake LD/CD 400/100mg plus OPC 50mg
[25] = five-intake levodopa/carbidopa 500/125 mg vs five-intake levodopa/carbidopa 400/100 mg plus opicapone 50 mg, N 9
[26] = five-intake levodopa/carbidopa 500/125 mg vs four-intake levodopa/carbidopa 400/100 mg plus opicapone 50 mg, N 10
[27] = five-intake levodopa/carbidopa 500/125 mg vs four-intake levodopa/carbidopa 400/100 mg plus opicapone 50 mg, N 12

## levodopa/carbidopa [LD/CD]
[1]; [3]
  Levodopa AUCτ: 1788^b h · ng/mL
  Levodopa Cavg: 596^b ng/mL
  Levodopa Cmax: 1356 ng/mL
  Levodopa Cmin: 18.1 ng/mL
  Levodopa tmax: 0.5 h
[1]; [4]
  Levodopa AUCτ: 2871^d h · ng/mL
  Levodopa Cavg: 957^d ng/mL
  Levodopa Cmax: 1540 ng/mL
  Levodopa Cmin: 455 ng/mL
  Levodopa tmax: 1.5 h
[1]; [5]
  Levodopa Cmax (over all intakes of the 12-hour pharmacokinetics; Cmax,max): 1999 (26.3) ng/mL
  Levodopa Cmin (over all intakes, excluding first predose; Cmin,min): 267.0 (82.9) ng/mL
[1]; [6]
  Levodopa AUCτ: 2269^b h · ng/mL
  Levodopa Cavg: 756^b ng/mL
  Levodopa Cmax: 1466 ng/mL
  Levodopa Cmin: 283 ng/mL
  Levodopa tmax: 1.0 h
[1]; [7]
  Levodopa AUCτ: 2871^d h · ng/mL
  Levodopa Cavg: 957^d ng/mL
  Levodopa Cmax: 1530 ng/mL
  Levodopa Cmin: 365 ng/mL
  Levodopa tmax: 0.5 h
[1]; [8]
  Levodopa AUCτ: 2076 ng·h/mL
  Levodopa Cavg: 692 ng/mL
  Levodopa Cmax: 1393 ng/mL
  Levodopa Cmin: 18.6 ng/mL
  Levodopa tmax: 0.75 h
[1]; [9]
  Levodopa AUCτ: 3414^d h · ng/mL
  Levodopa Cavg: 1138^d ng/mL
  Levodopa Cmax: 1852 ng/mL
  Levodopa Cmin: 559 ng/mL
  Levodopa tmax: 1.5 h
[1]; [10]
  Levodopa Cmax (over all intakes of the 12-hour pharmacokinetics; Cmax,max): 2130 (25.8) ng/mL
  Levodopa Cmin (over all intakes, excluding first predose; Cmin,min): 264.5 (32.8) ng/mL
[1]; [11]
  Levodopa AUCτ: 2637^c h · ng/mL
  Levodopa Cavg: 879^c ng/mL
  Levodopa Cmax: 1751 ng/mL
  Levodopa Cmin: 266 ng/mL
  Levodopa tmax: 1.5 h
[1]; [12]
  Levodopa AUCτ: 2850^f h · ng/mL
  Levodopa Cavg: 950^f ng/mL
  Levodopa Cmax: 1310 ng/mL
  Levodopa Cmin: 403 ng/mL
  Levodopa tmax: 1.5 h
[1]; [13]
  Levodopa Cmin,min, geometric mean (90% CI): 218.9 (156.1, 307.0) ng/mL
  Levodopa Cmax,max, geometric mean (90% CI): 1931 (1667, 2237) ng/mL
[1]; [14]
  Levodopa Cmin,min, geometric mean (90% CI): 252.2 (211.4, 301.0) ng/mL
  Levodopa Cmax,max, geometric mean (90% CI): 2059 (1782, 2380) ng/mL
[2]; [15]
  OFF-time: 79.8 min
  ON-time: 100.3 min
  ON-time With Dyskinesia: 45.0 min
  ON-time Without Dyskinesia: 92.8 min
  Time to Best-ON: 55.0 min
  Time to ON: 38.9 min
[2]; [16]
  OFF-time: 106.9 min
  ON-time: 73.1 min
  ON-time With Dyskinesia: 23.3 min
  ON-time Without Dyskinesia: 67.3 min
  Time to Best-ON: 58.8 min
  Time to ON: 50.0 min
[2]; [17]
  OFF-time: 89.5 min
  ON-time: 90.5 min
  ON-time With Dyskinesia: 23.8 min
  ON-time Without Dyskinesia: 81.8 min
  Time to Best-ON: 62.0 min
  Time to ON: 40.5 min
[2]; [18]
  OFF-time: 84.6 min
  ON-time: 91.3 min
  ON-time With Dyskinesia: 22.5 min
  ON-time Without Dyskinesia: 87.5 min
  Time to Best-ON: 57.9 min
  Time to ON: 42.1 min
[2]; [19]
  12-hour OFF-time: 353.3 (80.46) min
  12-hour ON-time: 347.5 (92.53) min
  12-hour ON-time With Dyskinesia: 60.0 (45.14) min
  12-hour ON-time Without Dyskinesia: 322.5 (106.27) min
  12-hour Time to Best-ON: 59.22 (14.92) min
  12-hour Time to ON: 46.14 (12.38) min
[2]; [20]
  OFF-time: 88.5 min
  ON-time: 91.5 min
  ON-time With Dyskinesia: 33.8 min
  ON-time Without Dyskinesia: 79.2 min
  Time to Best-ON: 62.7 min
  Time to ON: 41.5 min
[2]; [21]
  OFF-time: 103.0 min
  ON-time: 77.0 min
  ON-time With Dyskinesia: 27.5 min
  ON-time Without Dyskinesia: 71.5 min
  Time to Best-ON: 51.7 min
  Time to ON: 36.0 min
[2]; [22]
  OFF-time: 86.5 min
  ON-time: 93.5 min
  ON-time With Dyskinesia: 31.7 min
  ON-time Without Dyskinesia: 74.5 min
  Time to Best-ON: 50.0 min
  Time to ON: 44.5 min
[2]; [23]
  OFF-time: 96.0 min
  ON-time: 81.0 min
  ON-time With Dyskinesia: 27.5 min
  ON-time Without Dyskinesia: 75.5 min
  Time to Best-ON: 57.5 min
  Time to ON: 52.5 min
[2]; [24]
  12-hour OFF-time: 348.1 (103.9) min
  12-hour ON-time: 320.1 (83.80) min
  12-hour ON-time With Dyskinesia: 72.5 (24.24) min
  12-hour ON-time Without Dyskinesia: 280.5 (71.44) min
  12-hour Time to Best-ON: 55.46 (14.86) min
  12-hour Time to ON: 43.13 (11.32) min
[2]; [25]
  12-h off time, geometric mean (90% CI): 376.9 (349.9, 406.0) min
  12-h on time, geometric mean (90% CI): 333.1 (298.8, 371.2) min
[2]; five-intake levodopa/carbidopa 500/125 mg vs five-intake levodopa/carbidopa 400/100 mg plus opicapone 50 mg, N 10
  12-h time to on, geometric mean (90% CI): 41.84 (36.03, 48.59) min
[2]; five-intake levodopa/carbidopa 500/125 mg vs five-intake levodopa/carbidopa 400/100 mg plus opicapone 50 mg, N 12
  12-h time to best on, geometric mean (90% CI): 53.97 (47.84, 60.89) min
[2]; [26]
  12-h off time, geometric mean (90% CI): 356.4 (313.2, 405.5) min
  12-h on time, geometric mean (90% CI): 340.3 (292.0, 396.7) min
[2]; [27]
  12-h time to best on, geometric mean (90% CI): 57.62 (50.84, 65.31) min
  12-h time to on, geometric mean (90% CI): 44.62 (38.75, 51.39) min
